# Measured values reported in patent US8187320B2, “Medical implants containing FK506 (tacrolimus)” (Abbott Laboratories Vascular Enterprises Limited, priority 2001, dated 2012).
# Several values for one entry are separate records, joined by “and”; a condition that tells them apart may be missing. Equal values may be shown once. Marks after values point to notes of the source that are not given here.
# Assays:
# restenosis = conditions: in vivo; cited from earlier work
# [1] = tested on: smooth muscle cells (SMC); experiment: Inhibition of proliferation of smooth muscle cell (SMC) cultures; format: cell-based
# [2] = tested on: neointima formation and foci of inflammation; experiment: Animal study: FK506-loaded ceramic-coated stents implanted into the carotid artery of rabbits; format: in vivo, New Zealand rabbits; conditions: ceramic-coated stents loaded with 60 μg of FK506; rabbit carotid artery; after 28 days
# Protocol: Stainless steel coronary stents (JOSTENT Flex, 16 mm) were coated with an aluminum oxide ceramic layer. This coating served as carrier of FK506 (as described in Example 5). In this case, the stents were loaded with a total of 60 μg of FK506. In an animal study in rabbits (n=7), these FK506 coated stents and normal stents without coating were implanted into the carotid artery of New Zealand rabbits. The release of FK506 and the effect of FK506 on the growth of the intima and the formation of macrophages and lymphocytes was investigated.
# The release of FK506 were determined by HPLC determination of the amount of FK506 in the blood of the rabbits after 1 hr, 8 hr, 24 hr and 48 hr. FIG. 6 is a graph showing the release of FK506 over time. The rabbits were sacrificed after 28 days, and the implanted stents were examined. The area of newly grown intima (neointima) within the stent was quantified under the optical microscope, and is reported in FIG. 7. There is a reduction of 53% in the formation of neointima for stents loaded with 60 μg of FK506 compared with bare stents. […] The use of stents with a ceramic coating onto which FK506 is applied thus leads to a distinct reduction in neointima and in foci of inflammation after the implantation.
# [3] = Loading of selected active agents onto stent grafts / polyurethane-coated stents; format: physicochemical; conditions: type A: stent grafts with PTFE polymer layer immersed in solution of dissolved solids
# Source text: Loading of Selected Active Agents onto Stent Grafts All values are stated in μg.
# [4] = Active agent release from stent grafts and polymer-coated stents in PBS buffer at 37° C.; format: physicochemical; conditions: type A PTFE stent graft, PBS 37° C.
# Protocol: To analyze the active agent release, a stent was incubated at 37° C. in 10 ml of PBS buffer (stabilized with Na azide) at 37° C. After defined periods of time had elapsed, 2×1 ml of the solution were removed and analyzed. These 2 ml were replaced by fresh PBS buffer (stabilized with Na azide).
# The tables reflect the total released content of active agent in the solution., ie., the amounts of active agent in the buffer volume removed for the analysis are accumulated with amounts detected in subsequent examples.
# neointima formation [5] = conditions: animal experiments; cited from earlier work
# neointima formation [6] = conditions: pigs; Heldman 2001; cited from earlier work
smiles,measurement,setting,value
CO[C@H]1C[C@@H]2CC[C@@H](C)[C@@](O)(O2)C(=O)C(=O)N2CCCC[C@H]2C(=O)O[C@H]([C@H](C)C[C@@H]2CC[C@@H](O)[C@H](OC)C2)CC(=O)[C@H](C)/C=C(\C)[C@@H](O)[C@@H](OC)C(=O)[C@H](C)C[C@H](C)/C=C/C=C/C=C/1C [rapamycin],healing of vessel wall injury caused by balloon angioplasty and stent implantation,restenosis,delays healing of vessel wall injury
"C=CC[C@@H]1/C=C(\C)C[C@H](C)C[C@H](OC)[C@H]2O[C@@](O)(C(=O)C(=O)N3CCCC[C@H]3C(=O)O[C@H](/C(C)=C/[C@@H]3CC[C@@H](O)[C@H](OC)C3)[C@H](C)[C@@H](O)CC1=O)[C@H](C)C[C@@H]2OC (relative stereo) [FK 506, [3S-[3R* [E(1S*, 3S*, 4S*)], 4S*, 5R*,-8S*, 9E, 12R*, 14R*, 15S*, 16R*, 18S*, 19S*, 26aR*]]-5,6,8,11,12, 13, 14, 15, 16, 17, 18, 19, 24, 25, 25, 26, 26a-hexadecahydro-5,19-dihydroxy-3-[2-(4-hydroxy-3-methoxycyclohexyl)-1-methylethenyl]-14,16-dimethoxy-4,10,12,18-tetramethyl-8-(2-propenyl)-15,19-epoxy-3H-pyrido[2,1-c] [1,4]oxaazacyclotricosine-1,7-20,21(4H,23H)-tetrone]",concentrations with inhibitory effect on SMC proliferation,[1],300 to 500 nM
same,reduction in the formation of neointima compared with bare stents,[2],53%
O=C1c2c(O)ccc(O)c2C(=O)c2c(NCCNCCO)ccc(NCCNCCO)c21 [Mitoxantrone],"amount of active agent loaded, Average",[3],124 µg
same,"amount of active agent loaded, single stent",[3],116 µg and 142 µg and 113 µg
CC(=O)O[C@H]1C(=O)[C@@]2(C)[C@H]([C@H](OC(=O)c3ccccc3)[C@]3(O)C[C@H](OC(=O)[C@H](O)[C@@H](NC(=O)c4ccccc4)c4ccccc4)C(C)=C1C3(C)C)[C@]1(OC(C)=O)CO[C@@H]1C[C@@H]2O [Paclitaxel],"amount of active agent loaded, Average",[3],144 µg
same,"amount of active agent loaded, single stent",[3],128 µg and 155 µg and 148 µg
same,"total released content after 8 hr, single determinations","[4]; Paclitaxel, after 8 hr",1.16 and μg and 1.21 μg and 0.89 and 0.94 μg and 1.42 and 1.25 μg
same,"total released content after 24 hr, single determinations",[4]; Paclitaxel,2.44 and μg and 2.40 μg and 2.26 and 2.27 μg and 1.65 and 1.42 μg
same,"total released content after 96 hr, single determinations","[4]; Paclitaxel, after 96 hr",2.79 and μg and 2.78 μg and 2.82 and 2.82 μg and 1.42 and 1.93 μg
same,"total released content after 192 hr, Average","[4]; Paclitaxel, after 192 hr",2.23 µg
same,"total released content after 192 hr, single determinations","[4]; Paclitaxel, after 192 hr",2.22 µg and 2.24 µg
same,neointima formation,neointima formation [5],inhibit neointima formation
same,duration of beneficial effect of coated stents,neointima formation [6],beneficial effect has been observed to cease after 6 months
N.N.[Cl][Pt][Cl] [Cisplatin],"amount of active agent loaded, Average",[3],14 µg
same,"amount of active agent loaded, single stent, measured by AAS",[3]; measured by AAS,15* μg and 14* μg
same,"total released content after 24 hr, single determinations",[4]; Cisplatin,12.4 µg and 12.2 µg and 16.1 µg and 15.9 µg and 10.9 µg and 11.1 µg
CC[C@]1(O)C[C@@H]2CN(CCc3c([nH]c4ccccc34)[C@@](C(=O)OC)(c3cc4c(cc3OC)N(C)[C@H]3[C@@](O)(C(=O)OC)[C@H](OC(C)=O)[C@]5(CC)C=CCN6CC[C@]43[C@@H]65)C2)C1 [Vinblastine],"total released content after 96 hr, Average","[4]; Vinblastine, after 96 hr",136 µg
same,"total released content after 96 hr, single determinations","[4]; Vinblastine, after 96 hr",132 and μg and 140 μg
